We go through 3 compounds from patent publication US10172848B2, “Gap junction-enhancing agents for treatment of necrotizing enterocolitis and inflammatory bowel disease” (University of Pittsburgh—of the Commonwealth System of …, priority 2010, dated 2019).

Square brackets hold non-standard residues; d marks the D form. Peptide text beside a SMILES is read from it. dHyp = O=C(O)[C@H]1C[C@H](O)CN1

For one series, the system named is IEC-6 cells. Briefly: migration into a scraped wound. Type of series: cell-based. The following applies: migration into a scraped wound over 20 hours, increasing PMA concentration, FIG. 10B. The method, then: (§1) FIG. 10A-B. (A) IEC-6 enterocytes were treated with the concentrations of phorbol myristate acetate (“PMA”) indicated for one hour and then evaluated for the extent of enterocyte gap junction communication by confocal based dye transfer. The untreated cells represent the 100% dye transfer. *p<0.05 versus untreated cells. (B) IEC-6 cells were treated with the concentration of PMA indicated and assessed for their ability to migrate into a scraped wound over 20 hours. *p<0.05 vs. untreated cells. Representative of two separate experiments.
(§2) IEC-6 enterocytes were treated with various concentrations of phorbol myristate acetate (“PMA”) for one hour and then evaluated for the extent of enterocyte gap junction communication by confocal based dye transfer. […] Further, IEC-6 cells were treated with the concentration of PMA indicated and assessed for their ability to migrate into a scraped wound over 20 hours.

The next series has as its system IEC-6 enterocytes. Briefly: enterocyte gap junction communication by confocal based dye transfer. The series is classed as cell-based. The following applies: IEC-6 enterocytes treated with various concentrations of PMA for one hour; untreated cells = 100% dye transfer; FIG. 10A. As for the experimental part: as §1, §2
For series [1] the following is noted: qualitative statement, no test described; cited from earlier work.

As to `CCCCCCCCCCCCCC(=O)O[C@@H]1[C@@H](C)[C@@]2(O)[C@@H](C=C(CO)C[C@]3(O)C(=O)C(C)=C[C@@H]23)[C@@H]2C(C)(C)[C@]12OC(C)=O` [PMA, phorbol myristate acetate], the “speed (rate) of enterocyte migration” value in the series on IEC-6 cells is recorded as “the speed (rate) of enterocyte migration also increased”. The “extent of gap junction communication (dye transfer)” value with IEC-6 enterocytes is “as concentrations of PMA increased, so did the extent of gap junction communication”.
Consider `CC(=O)N[C@H](Cc1ccc(O)cc1)C(=O)N1CCC[C@@H]1C(=O)N1C[C@@H](O)C[C@@H]1C(=O)NCC(=O)N[C@H](C)C(=O)NCC(N)=O` [Rotigaptide, (2R, 4S)-1-[(2R)-1-[(2R)-2-acetamido-3-(4-hydroxyphenyl)propanoyl]pyrrolidine-2-carbonyl]-N-[2-[[(2R)-1-[(2-amino-2-oxoethyl)amino]-1-oxopropan-2-yl]amino]-2-oxoethyl]-4-hydroxypyrrolidine-2-carboxamide] (Ac-[dY][dP][dHyp]G[dA]G-NH2), for which, in series [1], the half-life result is reported as “long half-life” and the stability entry is recorded as “stable”.
As for `NCC(=O)N1C[C@H](NC(=O)c2ccccc2)C[C@H]1C(=O)O` [GAP-134, (2S,4R)-1-(2-aminoacetyl)-4-benzamido-pyrrolidine-2-carboxylic acid], the half-life entry in series [1] is “shorter half-life than ZP123”.
